Experimental findings from patent publication US20040266823A1 (priority 2001, published 2004) are described below.

Structures can show the parent of a compound that is named as a salt.

The target of this assay is recombinant human CCR5 receptor (Homo sapiens, UniProt P51681). In words: MIP-1α radioligand binding assay (scintillation proximity). To be noted: displacement of 0.1 nM iodinated MIP-1α; membranes from Chinese hamster ovary cells; average if tested more than once. The protocol: The ability of compounds to inhibit the binding of MIP-1α was assessed by an in vitro radioligand binding assay. Membranes were prepared from Chinese hamster ovary cells which expressed the recombinant human CCR5 receptor. These membranes were incubated with 0.1 nM iodinated MIP-1α, scintillation proximity beads and various concentrations of the compounds of the invention in 96 well plates. The amount of iodinated MIP-1α bound to the receptor was determined by scintillation counting. Competition curves were obtained for compounds and the concentration of compound which displaced 50% of bound iodinated MIP-1α was calculated (IC50).
Sequence of recombinant human CCR5 receptor (P51681 whole entry): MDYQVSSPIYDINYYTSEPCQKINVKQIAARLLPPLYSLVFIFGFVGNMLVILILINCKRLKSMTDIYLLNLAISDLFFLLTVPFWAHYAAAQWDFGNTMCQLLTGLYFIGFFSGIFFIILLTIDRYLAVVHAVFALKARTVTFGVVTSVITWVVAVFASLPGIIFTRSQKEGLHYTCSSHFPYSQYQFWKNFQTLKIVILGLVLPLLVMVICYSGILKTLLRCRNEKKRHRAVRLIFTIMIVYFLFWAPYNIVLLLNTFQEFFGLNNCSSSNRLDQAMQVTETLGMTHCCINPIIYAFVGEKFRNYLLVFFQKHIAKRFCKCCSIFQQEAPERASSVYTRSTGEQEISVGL
In Table II the results are presented as Pic50 values. A Pic50 value is the negative log (to base 10) of the IC50 result, so an IC50 of 1 μM (that is 1×10^−6M) gives a Pic50 of 6. If a compounds was tested more than once then the data below is an average of the probative tests results.
On to `CCN(C(=O)Cc1ccc(S(C)(=O)=O)cc1)C1CCN(CC[C@H](NC(=O)c2cnccc2C(F)(F)F)c2ccccc2)CC1.Cl`, for which the Pic50 is 7.32.

As to `CCN(C(=O)Cc1ccc(S(C)(=O)=O)cc1)C1CCN(CC[C@H](NC(=O)C2CCOC(C)(C)C2)c2ccccc2)CC1` (stereo partly drawn) [Compound No. 81, (s)-N-[1-(3-phenyl-3-[2,2-dimethyltetrahydropyran-4-yl-carboxyamino]propyl)-4-piperidinyl]-N-ethyl-4-methanesulfonylphenylacetamide], the Pic50 amounted to 7.7.

For the compound `CCN(C(=O)Cc1ccc(S(C)(=O)=O)cc1)C1CCN(CC[C@H](NC(=O)N2CCSCC2)c2ccccc2)CC1` [Compound No. 83, (S)-N-[1-(3-phenyl-3-[thiomorpholin-4-ylcarboxyamino]propyl)-4-piperidinyl]-N-ethyl-4-methanesulfonylphenylacetamide], the Pic50 was 7.97.

The IC50 is the midpoint of a concentration-inhibition curve. Regarding `CCN(C(=O)Cc1ccc(S(C)(=O)=O)cc1)C1CCN(CC[C@H](NC(=O)C(F)F)c2ccccc2)CC1` [Compound No. 84, (S)-N-[1-(3-phenyl-3-difluoroacetylaminopropyl)-4-piperidinyl]-N-ethyl-4-methanesulfonylphenylacetamide hydrochloride], the concentration for half-maximal inhibition (IC50) is 35.5 nM.

Consider `CCN(C(=O)Cc1ccc(S(C)(=O)=O)cc1)C1CCN(CC[C@H](NC(=O)CC(F)(F)F)c2ccccc2)CC1` [Compound No. 86, (S)-N-[1-(3-phenyl-3-[3,3,3-trifluoropropionylamino]propyl)-4-piperidinyl]-N-ethyl-4-methanesulfonylphenylacetamide hydrochloride], for which the 50% inhibitory concentration (IC50) was 2 nM.

For the compound `CCN(C(=O)Cc1ccc(S(C)(=O)=O)cc1)C1CCN(CC[C@H](NC(=O)N2CCS(=O)(=O)CC2)c2ccccc2)CC1` [Compound No. 91, (S)-N-[1-(3-phenyl-3-[1,1-dioxothiomorpholin-4-ylcarboxyamino]propyl)-4-piperidinyl]-N-ethyl-4-methanesulfonylphenylacetamide], the Pic50 is given as 7.52.

For `CCN(C(=O)Cc1ccc(S(C)(=O)=O)cc1)C1CCN(CC[C@H](NC(=O)c2cccc(C#N)c2)c2ccccc2)CC1` [Compound No. 93, (S)-N-[1-(3-phenyl-3-[3-cyanobenzoylamino]propyl)-4-piperidinyl]-N-ethyl-4-methanesulfonylphenylacetamide], the IC50 is 16.2 nM.

In the case of `CCN(C(=O)Cc1ccc(S(C)(=O)=O)cc1)C1CCN(C(C)C[C@H](NC(=O)C2CCOCC2)c2ccccc2)CC1` (stereo partly drawn) [Compound No. 95, (3′S)-N-[1-(1-methyl-3-phenyl-3-[tetrahydropyran-4-yl-carboxyamino]propyl)-4-piperidinyl]-N-ethyl-4-methanesulfonylphenylacetamide], the IC50 is 0.191 nM.

On to `CCN(C(=O)Cc1ccc(S(C)(=O)=O)cc1)C1CCN(CC[C@H](NC(=O)CCC(F)(F)F)c2ccccc2)CC1` [Compound No. 96, (S)-N-[1-(3-phenyl-3-[4,4,4-trifluorobutyrylamino]propyl)-4-piperidinyl]-N-ethyl-4-methanesulfonylphenylacetamide hydrochloride], for which the IC50 is 2.34 nM.

As to `CCN(C(=O)Cc1ccc(S(C)(=O)=O)cc1)C1CCN(CC[C@H](NC(=O)c2ccccc2)c2cccc(F)c2)CC1` [Compound No. 103, (S)-N-{1-[3-benzoylamino-3-(3-fluorophenyl)propyl]piperidin-4-yl}-N-ethyl-2-(4-methanesulfonyl-phenyl)acetamide], the concentration for half-maximal inhibition (IC50) was 0.437 nM.

In the case of `CCN(C(=O)Cc1ccc(S(C)(=O)=O)cc1)C1CCN(CC[C@H](NC(=O)c2cccc(F)c2)c2cccc(F)c2)CC1` [Compound No. 104, (S)-N-{1-[3-(3-fluorobenzoylamino)-3-(3-fluorophenyl)propyl]piperidin-4-yl}-N-ethyl-2-(4-methanesulfonyl-phenyl)acetamide], the IC50 was 0.447 nM.

Take `CCN(C(=O)Cc1ccc(S(C)(=O)=O)cc1)C1CCN(CC[C@H](NC(=O)CC(C)(C)C)c2cccc(F)c2)CC1` [Compound No. 106, (S)-N-{1-[3-(3,3-dimethylbutyrylamino)-3-(3-fluorophenyl)propyl]piperidin-4-yl}-N-ethyl-2-(4-methanesulfonyl-phenyl)acetamide]: the IC50 is 0.562 nM.

Take `CCN(C(=O)Cc1ccc(S(C)(=O)=O)cc1)C1CCN(CC[C@H](NC(=O)CC(F)(F)F)c2cccc(F)c2)CC1` [Compound No. 108, (S)-N-{1-[3-(3,3,3-trifluoropropionylamino)-3-(3-fluorophenyl)propyl]piperidinyl}-N-ethyl-2-(4-methanesulfonyl-phenyl)acetamide]: the Pic50 is reported as 8.02.

Turning to `CCN(C(=O)Cc1ccc(S(C)(=O)=O)cc1)C1CCN(CC[C@H](NC(=O)C2CCSCC2)c2ccccc2)CC1` [Compound No. 109, (S)-N-[1-(3-phenyl-3-[tetrahydrothiopyran-4-yl-carboxyamino]propyl)-4-piperidinyl]-N-ethyl-4-methanesulfonylphenylacetamide], the Pic50 is 9.27.

`CCN(C(=O)Cc1ccc(S(C)(=O)=O)cc1)C1CCN(CC[C@H](NC(=O)c2ccoc2)c2ccccc2)CC1` [compound 52]: the IC50 is 14.1 nM.

For `CCN(C(=O)Cc1ccc(S(C)(=O)=O)cc1)C1CCN(CC[C@H](NC(=O)c2ccc[nH]2)c2ccccc2)CC1` [compound 53], the half-inhibitory concentration (IC50) is 15.5 nM.

Consider `CCN(C(=O)Cc1ccc(S(C)(=O)=O)cc1)C1CCN(CC[C@H](NC(=O)c2csnn2)c2ccccc2)CC1` [compound 63], for which the half-inhibitory concentration (IC50) was 91.2 nM.

For the compound `CCN(C(=O)Cc1ccc(S(C)(=O)=O)cc1)C1CCN(CC[C@H](NC(=O)c2ccno2)c2ccccc2)CC1` [compound 64], the 50% inhibitory concentration (IC50) was 331 nM.

For the compound `CCN(C(=O)Cc1ccc(S(C)(=O)=O)cc1)C1CCN(CC[C@H](NC(=O)c2ccc(NC(C)=O)nc2)c2ccccc2)CC1` [compound 68], the half-maximal inhibitory concentration (IC50) is 66.1 nM.

As to `CCN(C(=O)Cc1ccc(S(C)(=O)=O)cc1)C1CCN(CC[C@H](NC(=O)c2ccc(S(C)(=O)=O)s2)c2ccccc2)CC1` [compound 79], the IC50 was 28.2 nM.

With `CCN(C(=O)Cc1ccc(S(C)(=O)=O)cc1)C1CCN(CC[C@H](NC(=O)c2cc(F)cc(F)c2)c2ccccc2)CC1` [compound 82], the IC50 is 20 nM.

For the compound `CCN(C(=O)Cc1ccc(S(C)(=O)=O)cc1)C1CCN(CC[C@H](NC(=O)C(C)CC(F)(F)F)c2ccccc2)CC1` (stereo partly drawn) [compound 87], the IC50 was 16.2 nM.

For `CCN(C(=O)Cc1ccc(S(C)(=O)=O)cc1)C1CCN(CC[C@H](NC(=O)c2ccc(C(F)(F)F)o2)c2ccccc2)CC1` [compound 88], the 50% inhibitory concentration (IC50) is 33.1 nM.

With `CCN(C(=O)Cc1ccc(S(C)(=O)=O)cc1)C1CCN(CC[C@H](NC(=O)c2ccc(=O)[nH]c2)c2ccccc2)CC1` [compound 89], the IC50 was 57.5 nM.

With `CCN(C(=O)Cc1ccc(S(C)(=O)=O)cc1)C1CCN(CC[C@H](NC(=O)c2cnc[nH]2)c2ccccc2)CC1` [compound 90], the half-inhibitory concentration (IC50) was 245 nM.

Regarding `CCN(C(=O)Cc1ccc(S(C)(=O)=O)cc1)C1CCN(CC[C@H](NC(=O)c2[nH]nnc2C(C)C)c2ccccc2)CC1` [compound 92], the IC50 is 631 nM.

For the compound `CCN(C(=O)Cc1ccc(S(C)(=O)=O)cc1)C1CCN(CC[C@H](NC(=O)c2ccc(C#N)cc2)c2ccccc2)CC1` [compound 94], the concentration for half-maximal inhibition (IC50) was 27.5 nM.

As for `CCN(C(=O)Cc1ccc(S(C)(=O)=O)cc1)C1CCN(CC[C@H](NC(=O)c2ccc(NC(C)=O)cc2)c2ccccc2)CC1` [compound 97], the 50% inhibitory concentration (IC50) was 26.9 nM.

As for `CCN(C(=O)Cc1ccc(S(C)(=O)=O)cc1)C1CCN(CC[C@H](NC(=O)c2cccc(S(C)(=O)=O)c2)c2ccccc2)CC1` [compound 98], the IC50 is 14.5 nM.

Take `CCN(C(=O)Cc1ccc(S(C)(=O)=O)cc1)C1CCN(CC[C@H](NC(=O)c2ccc(S(C)(=O)=O)cc2)c2ccccc2)CC1` [compound 99]: the 50% inhibitory concentration (IC50) is 40.7 nM.

As to `CCN(C(=O)Cc1ccc(S(C)(=O)=O)cc1)C1CCN(CC[C@H](NC(=O)c2ccc(S(=O)(=O)NC)cc2)c2ccccc2)CC1` [compound 100], the 50% inhibitory concentration (IC50) was 23.4 nM.

Consider `CCN(C(=O)Cc1ccc(S(C)(=O)=O)cc1)C1CCN(CC[C@H](NC(=O)c2ccc(NS(C)(=O)=O)cc2)c2ccccc2)CC1` [compound 101], for which the concentration for half-maximal inhibition (IC50) was 4.68 nM.

Consider `CCN(C(=O)Cc1ccc(S(C)(=O)=O)cc1)C1CCN(CC[C@H](NC(=O)c2ccc(C(F)(F)F)cc2)c2ccccc2)CC1` [compound 102], for which the 50% inhibitory concentration (IC50) was 9.55 nM.

`CCN(C(=O)Cc1ccc(S(C)(=O)=O)cc1)C1CCN(CC[C@H](NC(=O)C2CCOCC2)c2cccc(F)c2)CC1` [compound 105]: the IC50 is 2.88 nM.

Turning to `CCN(C(=O)Cc1ccc(S(C)(=O)=O)cc1)C1CCN(CC[C@H](NC(=O)N2CCCCC2)c2cccc(F)c2)CC1` [compound 107], the IC50 was 0.933 nM.

Turning to `CCN(C(=O)Cc1ccc(S(C)(=O)=O)cc1)C1CCN(CC[C@H](NC(=O)CC(C)(C)O)c2ccccc2)CC1` [compound 110], the IC50 is 45.7 nM.
